The test system of series [1] is KM mice (tail suspension model of behavioral despair). The experiment in a line: Tail suspension test after single intragastric (oral) administration. It is filed as in vivo. To be noted: tail suspension test 1 h after administration, last 4 min, mean ± SEM. Here is the method: (§1) The experimental animals were male SPF grade KM mice purchased from Kunming Medical University, weighed 21-24 g, certificate no. SCXK(Dian)K2015-0002. The experimental animals were bred in individually ventilated cages (IVCs) in animal room in Dianqing Biotechnology, Ltd., Yunnan (facility no. 13-11-078 and 13-11-079; manufacture date: Nov. 24, 2013). The room temperature was controlled at 22-24° C. with humidity at 40-70% and 12-hour light/dark cycle (7:00 am/19:00 pm). The cages and padding were changed twice a week. The raising method was group raising and there were 10 mice accommodated in each cage. The feed was sterilized feed from Jiangsu Xietong Medical Bioengineering, Ltd., certificate no.: (2014)01008. Feed was supplied once daily with free access . Tap water was supplied in boxes with free access.
A. Behavioral testing was performed in different treatment groups (1.0 mg/kg, 5.0 mg/kg, 10.0 mg/kg, 15.0 mg/kg, 30.0 mg/kg) 1 h after intragastric (i.g.) administration of the compound of formula 1;
B. In the negative control group receiving normal saline (NS), the behavioral testing was conducted at the same time;
C. In the positive control group receiving imipramine (IMI; 15 mg/kg), the behavioral testing was conducted at the same time;
Route of administration: The test compound of formula 1, normal saline or imipramine was administered by intragatric administration according to the experimental design.
Time of administration: The animals were accommodated to the experimental environment for 1 hour, administrated by intragatric administration, and subjected to tail suspension test 1 hour after the administration.
Test criterion: The mice were subjected to a 6-minute tail suspension test, and the cumulative time of immobility in the first 2 minutes and the last 4 minutes was recorded. The criterion for immobility is that the mouse stops struggling and remains steady.
(§2) A depression model of behavioral despair, ie. tail suspension model, was used. Animals were accommodated to the company's breeding environment for 1 day. During the adaptation, animals with non-smooth and unclean hair, high alertness or aggressivity were excluded.
(§3) Animals were accommodated to the experimental environment for 1 hour, weighed, and randomized according to the body weight into a normal saline control group, an imipramine control group and treatment groups with different doses.
(§4) In the tail suspension test, animals in all groups were administered with corresponding drugs by a single intragastric administration. 1 h after the administration, tails of mice were fixed with medical tape at about 1-2 cm from the end, such that the mice were hanged in the tail suspension box with the heads about 10 cm above the bottom of the box. The observation started immediately after hanging. In the 6-minute observation, the cumulative time of immobility in the first 2 minutes and the last 4 minutes was recorded. A video was recorded with obviously contrasted background with the hair color of the mice, for example, black background was used for white mice.
(§5) The cumulative time of immobility within the last 4 minutes was compared between the test compound groups and the normal saline group using SPSS 11.0 software. One-way analysis of variance (ANOVA) was used for comparison among multiple groups, and independent sample T test was performed for comparisons in pairs. P <0.05 indicates a statistically significant difference. All statistical diagrams were plotted in mean ±SEM using Origin 8.0 software.

Series [2] has the same test system. The experiment in a line: Tail suspension test after single intraperitoneal injection. It is filed as in vivo. Conditions: tail suspension test 0.5 h after administration, last 4 min, mean ± SEM. Here is the method: as §1, with “access.” for “access .”
A. Behavioral testing was performed in different treatment groups (1.0 mg/kg, 5.0 mg/kg, 10.0 mg/kg, 20.0 mg/kg) 0.5 h after intraperitoneal (i.p.) injection of the compound of formula 1;
B. In the control group receiving normal saline (NS), the behavioral testing was conducted at the same time;
C. In the control group receiving imipramine (IMI; 15 mg/kg), the behavioral testing was conducted at the same time;
Route of administration: The test compound of formula 1, normal saline or imipramine was administered by intraperitoneal injection according to the experimental design.
Time of administration: The animals were accommodated to the experimental environment for 1 hour, administrated by intraperitoneal injection and subjected to tail suspension test 0.5 hour after the administration.
Test criterion: The mice were subjected to a 6-minute tail suspension test, and the cumulative time of immobility in the first 2 minutes and the last 4 minutes was recorded. The criterion for immobility was that the mouse stops struggling and remains steady.
as §2, §3
as §4, with “groups for tail suspension test” for “groups”, “intraperitoneal injection. 0.5” for “intragastric administration. 1”
as §5

For another series, the system named is NMDA receptor. The experiment in a line: Whole-cell NMDAR current (NMDAR-EPSC) recording in hippocampal CA1 pyramidal cells of brain slices. Conditions: hippocampal CA1 pyramidal cells at +40 mV, last 10 min of 20 min. It is filed as cell-based, mice. Here is the method: Male C57BL/6 mice, aged 3-9 weeks, were purchased from Beijing Vital River Laboratory Animal Technology Co., Ltd. (Beijing, China). The animals were bred at 23 ±1° C. The room temperature was controlled at 22-24° C. with humidity at 40-70% and 12-hour light/dark cycle (7:00 am/19:00 pm).
A. The baseline whole-cell NMDAR current was recorded in 10 minutes before the compound of formula 1 (0.76, 3.8 mM/L) was dissolved in artificial cerebrospinal fluid (vehicle) and added with the brain slice circulation fluid.
B. An identical volume of artificial cerebrospinal fluid (vehicle) was added with the brain slice circulation fluid.
Treatment: The brain slice circulation fluid was directly added.
Time of treatment: 10 minutes after baseline recording.
Test item: depolarization voltage-induced whole-cell NMDAR receptor currents.
Hippocampal brain slices: The animals were anesthetized with isoflurane and the brains were collected quickly. […]
Whole-cell NMDAR current recording: NMDAR whole cell EPSC recording was performed in hippocampal CA1 pyramidal cells. […] The electrical signal in whole cells was recorded using a Clampfit 10.3 software (Axon Instruments) equipped with an Axopatch-700B amplifier (Axon Instruments, Foster City, Calif.) and a Digiclata 1440A digital-to-analog converter, with filtering set at 2.8 kHz and sampling at 10 kHz. […]

The nature of series [3]: Solubility in water (description of test compound). It is filed as physicochemical.

Each structure is given as a SMILES string.

Turning to `CN(C)CCCN1c2ccccc2CCc2ccccc21` [IMI, imipramine, reference compound], the results for the “Time of immobility (% of NS)” value in series [1] (15 mg/kg i.g.) and in series [2] (15 mg/kg i.p.) were 58.64 ± 5.42 % of NS and 58.12 ± 5.66 % of NS, respectively.
Turning to `Cc1ccc(O[C@@H]2OC(CO)[C@@H](O)[C@H](O)C2O)cc1O[C@@H]1OC(CO)[C@@H](O)[C@H](O)C1O` (some centres unmarked) [Compounds of formula 1], the “Time of immobility (% of NS)” value in series [1] (1 mg/kg i.g.) is listed as 87.14 ± 11.27 % of NS; in series [1] (5 mg/kg i.g.) it was 72.67 ± 7.89 % of NS; in series [1] (10 mg/kg i.g.), 66.86 ± 8.80 % of NS; in series [1] (15 mg/kg i.g.), 68.33 ± 7.17 % of NS; in series [1] (30 mg/kg i.g.), 77.38 ± 6.00 % of NS; in series [2] (1 mg/kg i.p.), 104.02 ± 16.80 % of NS. The “Time of immobility (% of NS)” value in series [2] (5 mg/kg i.p.) is on record as 72.12 ± 8.57 % of NS; in series [2] (10 mg/kg i.p.), 60.44 ± 7.53 % of NS; in series [2] (20 mg/kg i.p.), 104.66 ± 14.75 % of NS. The “NMDAR current (% of Baseline)” value in the series with NMDA receptor (0.76 mM/L in circulating artificial cerebrospinal fluid) is on record as 108.80 ± 5.86 % of Baseline; in the series with NMDA receptor (3.8 mM/L in circulating artificial cerebrospinal fluid), 155.53 ± 20.85 % of Baseline. Also, in series [3], the Solubility in water entry is recorded as “easily soluble in water”.

For the origin of these results see patent US20220048939A1, “AROMATIC RING COMPOUND” (HAIKOU KAIBAO INDUSTRIAL CO., LTD, priority 2019, published 2022).
